Entries after “also recorded” stand apart in the source; their conditions may differ.

The nature of series [1]: Proteolytic stability in mouse plasma (TLC, autoradiography). Format: in vitro ADME. The settings on record: freshly prepared mouse plasma, 37°C, 1 μCi (approx. 0.08–0.8 μg) peptide with 1 μl plasma, D3 up to 2 days, L-form 0 and 60 min, 3H-autoradiography. On the procedure:
In order to study the proteolytic stability of peptides in biological extracts, tritium labelled peptides were incubated with liver microsomes (pooled from mouse (CD-1), Sigma-Aldrich), freshly prepared mouse plasma or extracts of brain, liver and kidney at 37°C for different time periods (from 0 min to 2 days). 1 μCi (approx. 0.08–0.8 μg) radioactive labelled peptide was mixed with 1 μl microsomes stock solution, plasma or organ extracts, respectively (in great excess to peptide). Mixtures containing tritium-labelled peptides were applied onto HPTLC Silica Gel 60 plates (OMNILAB, Essen, Germany) for thin layer chromatography (TLC) with a mobile solvent (2-Butanol/Pyridine/Ammonia(28%)/Water(39/34/10/26)). After development, a phosphor imaging plate for ^3H-autoradiography (FUJIFILM, Tokyo, Japan) was exposed to the TLC plates for 3 days. Images were acquired with a BAS reader and AIDA software (Raytest, Freiburg, Germany). Retardation factor (Rf) of each substance was defined as the ratio of the migration distance of the centre of a separated spot to the migration distance of the solvent front.

Series [2] addresses T1, human serum albumin (HSA) (Homo sapiens, UniProt P02768).
T1 construct: purchased Sovicell GmbH, Leipzig, Germany
Description: Plasma protein binding, TRANSIL XL kit, HSA. Format: in vitro ADME. The settings on record: 5 μM D3 (with 3H-D3) in PBS, LSC of supernatant, above detection limit of the kit, n = 2. As to the method:
Plasma protein binding was estimated by incubation of D3 with varying concentrations of protein using TRANSIL^XL binding kits (Sovicell GmbH, Leipzig, Germany). KD values were determined by titrating a constant drug concentration against different concentrations of human serum albumin (HSA) and α1-acid glycoprotein (AGP). Experiments were performed as recommended for the kit. To obtain the desired D3 stock solution of 80 μM, non-radioactively labelled D3 was dissolved in PBS and 5% ^3H-labelled D3 solution was added for detection purposes. A final concentration of 5 μM D3 was applied in the assay. After incubation and centrifugation 15 μl supernatant were taken and scintillation cocktail was added. This was done in triplicate. Radioactivity was then quantified using liquid scintillation counting. After measuring the disintegrations per minute (dpm) of the supernatant containing the unbound peptide, the D3 fraction bound to the titrated protein was calculated and plotted against the protein concentrations. […]
For bioavailability determination, the unbound fraction of D3 (fu) was calculated using the equation below: fu=100*CD3−KD−Cphysiol/2+KD*CD3+(CD3−KD−Cphysiol/2)^2/CD3 (1) For very low D3 concentrations in blood (CD3), Eq (1) can be simplified by Eq (2), where the unbound fraction of D3 can be calculated independently of the applied D3 concentration. […]

“RPRTR-(4,5-^3H-Leu)-HTHRNR [3H-(L)-D3, tritium labelled L-form enantiomer of D3, RPRTR-(4,5-3H-Leu)-HTHRNR]”: the “proteolytic degradation in plasma” value in series [1] was “significant degradation already after 60 min; also recorded: Obvious proteolytic degradation”.
On to “D3: fully D-enantiomeric peptide identified by mirror-image phage display for binding to Aβ (1–42) (RPRTRLHTHRNR; all residues are D-amino acids (rprtrlhthrnr); tracer form carries 4,5-3H-D-Leu at position 6)”, for which, in series [2], the Kd (as a rule, the free concentration of one partner at which half of the binding sites on the other are occupied at equilibrium, for simple one-to-one binding) was above 1400 µM.

The values are drawn from publication PMC4457900, “Preclinical Pharmacokinetic Studies of the Tritium Labelled D-Enantiomeric Peptide D3 Developed for the Treatment of Alzheimer´s Disease” (PLoS ONE, 2015).
